Assay results published in ChEMBL document CHEMBL3885861, “Open TG-GATES”.

Organism: Rattus norvegicus
Assay: Open TG-GATES - Regimen: Daily Repeat
Type: toxicity, organism-based, Sprague-Dawley
Design: regimen Daily Repeat, gender Male, age 6 weeks
Details: in vivo, po, route gavage; for APTT / Bas / Eos / Fbg / Hb / Ht / Lym / MCH / MCHC / MCV / Mono / Neu / PT / Plat / RBC / Ret / WBC: tissue Blood; for KIDNEY_L / KIDNEY_R / KIDNEY_TOTAL: tissue Kidney; for LIVER: tissue Liver; for A/G / ALP / ALT / AST / BUN / CRE / Ca / Cl / DBIL / GLC / IP / K / LDH / Na / PL / RALB / TBIL / TC / TG / TP / gamma-GTP: tissue Plasma
[1] = 300 mg/kg, 72 h, dose level Middle, time 3 day
[2] = 300 mg/kg, […], dose level Middle, time 7 day
[3] = 300 mg/kg, […], dose level Middle, time 14 day
[4] = 300 mg/kg, […], dose level Middle, time 28 day
[5] = 1000 mg/kg, 72 h, dose level High, time 3 day
[6] = 1000 mg/kg, […], dose level High, time 7 day
[7] = 1000 mg/kg, […], dose level High, time 14 day
[8] = 1000 mg/kg, […], dose level High, time 28 day

## CC(C)(S)[C@@H](N)C(=O)O [PENICILLAMINE]
[1]
  TERMINAL_BW: 235.2 g
  APTT: 17.2 s
  Bas: 0.4%
  Eos: 1%
  Fbg: 301.4 mg/dL
  Hb: 13.7 g/dL
  Ht: 42.2%
  Lym: 79.2%
  MCH: 20.9 pg
  MCHC: 32.6%
  MCV: 64.1 fL
  Mono: 3.2%
  Neu: 15.4%
  PT: 14.1 s
  Plat: 114.9 x10_4/uL
  RBC: 658.6 x10_4/ul
  Ret: 7.6%
  WBC: 91.9 x10_2/uL
  KIDNEY_L: 1 g
  KIDNEY_R: 1 g
  KIDNEY_TOTAL: 2 g
  LIVER: 11.1 g
  A/G: 0.9
  ALP: 1461.8 IU/L
  ALT: 40.4 IU/L
  AST: 66.2 IU/L
  BUN: 14.4 mg/dL
  CRE: 0.2 mg/dL
  Ca: 11 mg/dL
  Cl: 106.6 meq/L
  DBIL: 0.012 mg/dL
  GLC: 181.6 mg/dL
  IP: 7.2 mg/dL
  K: 4 meq/L
  LDH: 102 IU/L
  Na: 144.6 meq/L
  PL: 159.2 mg/dL
  RALB: 2.8 g/dL
  TBIL: 0.028 mg/dL
  TC: 81.2 mg/dL
  TG: 102.8 mg/dL
  TP: 5.8 g/dL
  gamma-GTP: 1 IU/L
[2]
  TERMINAL_BW: 273.3 g
  APTT: 16.6 s
  Bas: 0%
  Eos: 1.4%
  Fbg: 377.6 mg/dL
  Hb: 13.4 g/dL
  Ht: 40.7%
  Lym: 75.4%
  MCH: 20.6 pg
  MCHC: 33.1%
  MCV: 62.4 fL
  Mono: 3.6%
  Neu: 18.8%
  PT: 14 s
  Plat: 122.4 x10_4/uL
  RBC: 652.2 x10_4/ul
  Ret: 5.9%
  WBC: 96 x10_2/uL
  KIDNEY_L: 1.2 g
  KIDNEY_R: 1.1 g
  KIDNEY_TOTAL: 2.3 g
  LIVER: 12.2 g
  A/G: 0.9
  ALP: 1362.2 IU/L
  ALT: 38.6 IU/L
  AST: 61 IU/L
  BUN: 15.6 mg/dL
  CRE: 0.2 mg/dL
  Ca: 10.8 mg/dL
  Cl: 103.8 meq/L
  DBIL: 0.012 mg/dL
  GLC: 189.4 mg/dL
  IP: 7.2 mg/dL
  K: 4 meq/L
  LDH: 67.4 IU/L
  Na: 141.6 meq/L
  PL: 164.8 mg/dL
  RALB: 2.7 g/dL
  TBIL: 0.034 mg/dL
  TC: 85.4 mg/dL
  TG: 113.4 mg/dL
  TP: 5.7 g/dL
  gamma-GTP: 1 IU/L
[3]
  TERMINAL_BW: 321.5 g
  APTT: 23.3 s
  Bas: 0.2%
  Eos: 1%
  Fbg: 375.6 mg/dL
  Hb: 14.7 g/dL
  Ht: 43.5%
  Lym: 81.2%
  MCH: 20.2 pg
  MCHC: 33.8%
  MCV: 59.8 fL
  Mono: 2.2%
  Neu: 15.2%
  PT: 14.3 s
  Plat: 133 x10_4/uL
  RBC: 727 x10_4/ul
  Ret: 5.2%
  WBC: 103.7 x10_2/uL
  KIDNEY_L: 1.2 g
  KIDNEY_R: 1.3 g
  KIDNEY_TOTAL: 2.5 g
  LIVER: 13.6 g
  A/G: 0.9
  ALP: 1395 IU/L
  ALT: 41.8 IU/L
  AST: 64.2 IU/L
  BUN: 15.4 mg/dL
  CRE: 0.2 mg/dL
  Ca: 10.9 mg/dL
  Cl: 105 meq/L
  DBIL: 0.008 mg/dL
  GLC: 176.4 mg/dL
  IP: 7.2 mg/dL
  K: 3.9 meq/L
  LDH: 100.2 IU/L
  Na: 142.8 meq/L
  PL: 160.2 mg/dL
  RALB: 2.8 g/dL
  TBIL: 0.04 mg/dL
  TC: 80.4 mg/dL
  TG: 119.2 mg/dL
  TP: 6 g/dL
  gamma-GTP: 1 IU/L
[4]
  TERMINAL_BW: 390 g
  APTT: 17.4 s
  Bas: 0.4%
  Eos: 1.2%
  Fbg: 485.2 mg/dL
  Hb: 14.4 g/dL
  Ht: 42.7%
  Lym: 78%
  MCH: 18.7 pg
  MCHC: 33.8%
  MCV: 55.4 fL
  Mono: 2.6%
  Neu: 17.2%
  PT: 14.7 s
  Plat: 132.7 x10_4/uL
  RBC: 770 x10_4/ul
  Ret: 3.1%
  WBC: 131.5 x10_2/uL
  KIDNEY_L: 1.4 g
  KIDNEY_R: 1.4 g
  KIDNEY_TOTAL: 2.9 g
  LIVER: 15.6 g
  A/G: 0.9
  ALP: 911.4 IU/L
  ALT: 33.8 IU/L
  AST: 56.8 IU/L
  BUN: 14.8 mg/dL
  CRE: 0.2 mg/dL
  Ca: 10.8 mg/dL
  Cl: 105.6 meq/L
  DBIL: 0.008 mg/dL
  GLC: 186.8 mg/dL
  IP: 6.2 mg/dL
  K: 3.6 meq/L
  LDH: 60.6 IU/L
  Na: 144 meq/L
  PL: 147 mg/dL
  RALB: 2.8 g/dL
  TBIL: 0.072 mg/dL
  TC: 77 mg/dL
  TG: 87.8 mg/dL
  TP: 6.1 g/dL
  gamma-GTP: 1 IU/L
[5]
  TERMINAL_BW: 225.3 g
  APTT: 20.2 s
  Bas: 0%
  Eos: 1.2%
  Fbg: 286.4 mg/dL
  Hb: 13.2 g/dL
  Ht: 40.3%
  Lym: 78.6%
  MCH: 20.1 pg
  MCHC: 32.7%
  MCV: 61.6 fL
  Mono: 2.6%
  Neu: 16.8%
  PT: 14.4 s
  Plat: 121.8 x10_4/uL
  RBC: 657.4 x10_4/ul
  Ret: 6.2%
  WBC: 87.8 x10_2/uL
  KIDNEY_L: 1 g
  KIDNEY_R: 1 g
  KIDNEY_TOTAL: 2 g
  LIVER: 9.8 g
  A/G: 1
  ALP: 1073 IU/L
  ALT: 38 IU/L
  AST: 60.8 IU/L
  BUN: 13.2 mg/dL
  CRE: 0.2 mg/dL
  Ca: 10.7 mg/dL
  Cl: 105.8 meq/L
  DBIL: 0.012 mg/dL
  GLC: 166 mg/dL
  IP: 7.5 mg/dL
  K: 4.1 meq/L
  LDH: 94.2 IU/L
  Na: 144.2 meq/L
  PL: 143 mg/dL
  RALB: 2.8 g/dL
  TBIL: 0.038 mg/dL
  TC: 74.8 mg/dL
  TG: 50.4 mg/dL
  TP: 5.7 g/dL
  gamma-GTP: 0.8 IU/L
[6]
  TERMINAL_BW: 247.8 g
  APTT: 21.8 s
  Bas: 0%
  Eos: 1.4%
  Fbg: 452.4 mg/dL
  Hb: 13.2 g/dL
  Ht: 40.6%
  Lym: 79.2%
  MCH: 19.2 pg
  MCHC: 32.5%
  MCV: 59 fL
  Mono: 3%
  Neu: 15%
  PT: 14.6 s
  Plat: 131.3 x10_4/uL
  RBC: 687.8 x10_4/ul
  Ret: 4.6%
  WBC: 104.2 x10_2/uL
  KIDNEY_L: 1.1 g
  KIDNEY_R: 1.1 g
  KIDNEY_TOTAL: 2.1 g
  LIVER: 10.7 g
  A/G: 0.9
  ALP: 1010.8 IU/L
  ALT: 37 IU/L
  AST: 49.6 IU/L
  BUN: 15.2 mg/dL
  CRE: 0.2 mg/dL
  Ca: 10.8 mg/dL
  Cl: 104.4 meq/L
  DBIL: 0.016 mg/dL
  GLC: 169.2 mg/dL
  IP: 6.9 mg/dL
  K: 3.8 meq/L
  LDH: 72.4 IU/L
  Na: 142.4 meq/L
  PL: 156.4 mg/dL
  RALB: 2.8 g/dL
  TBIL: 0.066 mg/dL
  TC: 86.8 mg/dL
  TG: 59.2 mg/dL
  TP: 5.9 g/dL
  gamma-GTP: 1 IU/L
[7]
  TERMINAL_BW: 282 g
  APTT: 22.3 s
  Bas: 0%
  Eos: 1.2%
  Fbg: 520.8 mg/dL
  Hb: 13.1 g/dL
  Ht: 39.8%
  Lym: 82.6%
  MCH: 18.7 pg
  MCHC: 32.9%
  MCV: 56.8 fL
  Mono: 2.2%
  Neu: 13.2%
  PT: 15.3 s
  Plat: 164 x10_4/uL
  RBC: 701 x10_4/ul
  Ret: 4.9%
  WBC: 115.3 x10_2/uL
  KIDNEY_L: 1.2 g
  KIDNEY_R: 1.2 g
  KIDNEY_TOTAL: 2.3 g
  LIVER: 11.8 g
  A/G: 0.9
  ALP: 881.6 IU/L
  ALT: 37.2 IU/L
  AST: 52.4 IU/L
  BUN: 13 mg/dL
  CRE: 0.2 mg/dL
  Ca: 10.7 mg/dL
  Cl: 105.4 meq/L
  DBIL: 0.008 mg/dL
  GLC: 174.6 mg/dL
  IP: 6.7 mg/dL
  K: 3.8 meq/L
  LDH: 79.6 IU/L
  Na: 142.8 meq/L
  PL: 148.6 mg/dL
  RALB: 2.7 g/dL
  TBIL: 0.058 mg/dL
  TC: 81.6 mg/dL
  TG: 43.8 mg/dL
  TP: 5.8 g/dL
  gamma-GTP: 1 IU/L
[8]
  TERMINAL_BW: 342.2 g
  APTT: 17.8 s
  Bas: 0.4%
  Eos: 1.8%
  Fbg: 646.8 mg/dL
  Hb: 12.1 g/dL
  Ht: 37.3%
  Lym: 71.2%
  MCH: 16.1 pg
  MCHC: 32.4%
  MCV: 49.8 fL
  Mono: 4.2%
  Neu: 21.6%
  PT: 15.7 s
  Plat: 156.3 x10_4/uL
  RBC: 749.2 x10_4/ul
  Ret: 5.6%
  WBC: 153.3 x10_2/uL
  KIDNEY_L: 1.4 g
  KIDNEY_R: 1.4 g
  KIDNEY_TOTAL: 2.8 g
  LIVER: 14.6 g
  A/G: 0.8
  ALP: 458.6 IU/L
  ALT: 26.8 IU/L
  AST: 43.6 IU/L
  BUN: 14.2 mg/dL
  CRE: 0.2 mg/dL
  Ca: 10.5 mg/dL
  Cl: 105 meq/L
  DBIL: 0.02 mg/dL
  GLC: 162.4 mg/dL
  IP: 6.5 mg/dL
  K: 4 meq/L
  LDH: 70.4 IU/L
  Na: 144 meq/L
  PL: 137.6 mg/dL
  RALB: 2.7 g/dL
  TBIL: 0.1 mg/dL
  TC: 77.2 mg/dL
  TG: 45.4 mg/dL
  TP: 5.9 g/dL
  gamma-GTP: 1.6 IU/L
